Data: patent publication US5705487A, “Antithrombotic agents” (priority 1995, dated 1998)
Where a name gives a salt, the structure may show the parent alone.

Assays:
Type in all cases: biochemical
Human Plasma [1] = test: Human plasma anticoagulation, thrombin time (TT); details: concentration required to double the clotting time
Procedure, shortened: (§1)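 Citrated human plasma + cpd (broad conc. range); instrument clot timing. PT: saline/Thromboplastin-C. APTT: Actin 120 s, then CaCl2 0.02M. TT: saline/bovine thrombin 10 NIH units/mL. Value = conc. doubling clotting time, linear extrapolation.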

Human Plasma [2] = test: Human plasma anticoagulation, activated partial thromboplastin time (APTT); details: concentration required to double the clotting time
Procedure, shortened: as §1

factor Xa = target: T1, factor Xa (Homo sapiens, UniProt P00742); test: Kass, factor Xa chromogenic substrate assay; details: substrate N-Benzoyl-Ile-Glu-Gly-Arg-p-nitroanilide
T1 construct: Human factors X, Xa, IXa, XIa, and XIIa are purchased; purchased Enzyme Research Laboratories, South Bend, Ind

Human Plasma [3] = test: Human plasma anticoagulation, prothrombin time (PT); details: concentration required to double the clotting time
Procedure, shortened: as §1

Human Thrombin = Human Thrombin (Homo sapiens, UniProt P00734); test: Inhibition of the amidase activity of thrombin (Kass); details: chromogenic substrate N-benzoyl-Phe-Val-Arg-p-nitroanilide; mean over range of concentrations
Protocol: The 150 μL of an aqueous solution of the chromogenic substrate (at 0.25 mg/mL) are added and the rates of hydrolysis of the substrate are measured by monitoring the reactions at 405 nm for the release of p-nitroaniline. Standard curves are constructed by plotting free thrombin concentration against hydrolysis rate. […] The amount of free inhibitor in each assay is calculated by subtracting the number of moles of bound thrombin from the number of moles of added inhibitor (test compound).
The Kass value is the hypothetical equilibrium constant for the reaction between thrombin and the test compound (I).
Kass is calculated for a range of concentrations of test compounds and the mean value is reported in units of liter per mole.

Human plasmin = target: T2, Human plasmin (Homo sapiens, UniProt P00747); test: Kass, plasmin chromogenic substrate assay; details: substrate H-D-Val-Leu-Lys-p-nitroanilide
T2 construct: Human plasmin is purchased from Boehringer Mannheim; purchased Boehringer Mannheim, Indianapolis, Ind

Bovine trypsin = target: T3, Bovine trypsin (Bos taurus, UniProt P00760); test: Kass, trypsin chromogenic substrate assay; details: substrate N-Benzoyl-Phe-Val-Arg-p-nitroanilide
T3 construct: Bovine trypsin is purchased from Worthington Biochemicals; purchased Worthington Biochemicals, Freehold, N.J
T3 sequence (P00760 24-246): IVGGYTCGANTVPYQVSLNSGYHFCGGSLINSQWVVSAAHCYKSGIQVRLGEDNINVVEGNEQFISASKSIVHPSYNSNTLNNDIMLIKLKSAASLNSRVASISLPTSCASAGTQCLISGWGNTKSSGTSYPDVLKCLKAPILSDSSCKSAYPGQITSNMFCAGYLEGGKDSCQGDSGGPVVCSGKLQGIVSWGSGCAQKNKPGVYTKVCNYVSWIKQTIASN

t-PA = target: T4, t-PA (Homo sapiens, UniProt P00750); test: Kass, t-PA chromogenic substrate assay; details: substrate H-D-Ile-Pro-Arg-p-nitroanilide
T4 construct: purchased American Diagnostica, Greenwich, Conn
T4 sequence (P00750 36-562): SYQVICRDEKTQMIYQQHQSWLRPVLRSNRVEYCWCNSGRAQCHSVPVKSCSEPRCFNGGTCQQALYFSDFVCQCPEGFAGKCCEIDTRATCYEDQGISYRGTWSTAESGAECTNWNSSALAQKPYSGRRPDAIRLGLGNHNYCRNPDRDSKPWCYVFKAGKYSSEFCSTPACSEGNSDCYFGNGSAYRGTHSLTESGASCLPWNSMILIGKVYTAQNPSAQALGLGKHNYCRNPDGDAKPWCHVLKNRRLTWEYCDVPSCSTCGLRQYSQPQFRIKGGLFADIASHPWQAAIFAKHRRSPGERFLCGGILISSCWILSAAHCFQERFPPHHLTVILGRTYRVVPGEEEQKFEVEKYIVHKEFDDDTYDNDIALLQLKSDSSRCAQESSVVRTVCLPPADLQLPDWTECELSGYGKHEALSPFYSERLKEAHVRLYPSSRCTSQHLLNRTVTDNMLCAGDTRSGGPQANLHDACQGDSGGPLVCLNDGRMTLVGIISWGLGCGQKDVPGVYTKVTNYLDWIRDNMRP

T2 sequence (P00747 581-810 limits assumed): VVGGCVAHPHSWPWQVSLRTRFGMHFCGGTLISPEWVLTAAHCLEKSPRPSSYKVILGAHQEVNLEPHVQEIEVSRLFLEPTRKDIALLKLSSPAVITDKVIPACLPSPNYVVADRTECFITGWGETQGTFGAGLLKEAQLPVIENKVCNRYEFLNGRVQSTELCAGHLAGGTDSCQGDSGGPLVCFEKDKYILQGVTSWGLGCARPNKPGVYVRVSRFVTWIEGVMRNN
T2 sequence (P00747 97-580 partner limits assumed): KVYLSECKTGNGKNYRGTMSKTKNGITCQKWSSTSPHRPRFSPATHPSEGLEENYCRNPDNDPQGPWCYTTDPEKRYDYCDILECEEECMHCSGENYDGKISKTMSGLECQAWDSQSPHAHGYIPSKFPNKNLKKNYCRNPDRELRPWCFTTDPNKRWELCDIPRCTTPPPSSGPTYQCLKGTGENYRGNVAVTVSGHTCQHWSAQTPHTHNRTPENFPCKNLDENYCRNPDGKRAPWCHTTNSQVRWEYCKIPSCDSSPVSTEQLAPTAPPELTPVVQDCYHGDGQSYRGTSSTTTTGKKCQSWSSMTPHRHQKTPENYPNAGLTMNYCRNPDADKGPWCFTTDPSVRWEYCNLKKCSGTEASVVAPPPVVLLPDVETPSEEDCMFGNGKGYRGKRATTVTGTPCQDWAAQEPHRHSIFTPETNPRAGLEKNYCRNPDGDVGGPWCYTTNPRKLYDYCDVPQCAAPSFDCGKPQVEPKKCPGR
T1 sequence (P00742 235-488 limits assumed): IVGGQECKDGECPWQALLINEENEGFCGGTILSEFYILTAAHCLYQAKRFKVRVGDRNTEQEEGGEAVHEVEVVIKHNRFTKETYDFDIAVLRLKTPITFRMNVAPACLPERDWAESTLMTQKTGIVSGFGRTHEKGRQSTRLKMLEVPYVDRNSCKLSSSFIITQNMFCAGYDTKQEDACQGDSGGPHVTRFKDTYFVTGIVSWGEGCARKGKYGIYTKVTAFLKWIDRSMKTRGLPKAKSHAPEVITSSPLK
T1 sequence (P00742 41-179 partner limits assumed): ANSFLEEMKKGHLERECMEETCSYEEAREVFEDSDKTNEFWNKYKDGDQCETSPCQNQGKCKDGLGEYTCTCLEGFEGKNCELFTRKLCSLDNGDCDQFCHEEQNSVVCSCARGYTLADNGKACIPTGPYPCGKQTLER

Row | Structure (SMILES) | Human Plasma Anticoagulation 2x Clotting time TT (Human Plasma [1]) | Human Plasma Anticoagulation 2x Clotting time APTT (Human Plasma [2]) | Kass × 10^6 (L/mole) Xa (factor Xa) | Human Plasma Anticoagulation 2x Clotting time PT (Human Plasma [3]) | Kass × 10^6 (L/mole) Human Thrombin (Human Thrombin) | Kass × 10^6 (L/mole) Plasmin (Human plasmin) | Kass × 10^6 (L/mole) Trypsin (Bovine trypsin) | Kass × 10^6 (L/mole) t-PA (t-PA)
1 | Cl.N=C(N)c1ccc(CNC(=O)[C@@H]2C[C@@H]3CCCC[C@@H]3N2C(=O)[C@@H](CC2CCCCC2)NCC(=O)O)cc1 (relative stereo) [Example 49, HOOCCH2 -D-Cha-cis-Ohi-p-NHCH2 C6 H4 C(NH)NH2.HCl] | 5 ng/mL | 130 ng/mL | 3.4 × 10^6 L/mole | 130 ng/mL | 400 × 10^6 L/mole | 0.84 × 10^6 L/mole | 940. × 10^6 L/mole | 0.04 × 10^6 L/mole
2 | CCS(=O)(=O)N[C@H](Cc1ccccc1)C(=O)N1CCC[C@H]1C(=O)NCCCc1cccc(C(=N)N)c1 [Example 31, EtSO2 -D-Phe-Pro-m-NHCH2 CH2 CH2 -C6 H4 C(=NH)NH2.HCl] | 10,800 ng/mL | 34,500 ng/mL | 0.14 × 10^6 L/mole | 30,000 ng/mL | 0.07 × 10^6 L/mole | < 0.001 × 10^6 L/mole | 0.05 × 10^6 L/mole | < 0.001 × 10^6 L/mole
3 | Cl.O=C(O)CNC(CC1CCCCC1)C(=O)N1CCCC1C(=O)NCCC1CCNCC1 [Example 54, HO2 CCH2 -D-Cha-Pro-4-NHCH2 CH2 -piperidine.HCl] | 140 ng/mL | 3,300 ng/mL | < 0.001 × 10^6 L/mole | 2,200 ng/mL | 2.8 × 10^6 L/mole | 0.01 × 10^6 L/mole | 0.52 × 10^6 L/mole | < 0.001 × 10^6 L/mole
4 | Cl.N=C(N)c1cccc(CNC(=O)[C@@H]2CCCN2C(=O)[C@H](N)Cc2ccccc2)c1 [Example 16, D-Phe-Pro-m-NHCH2 C6 H4 C(NH)NH2.0.75HCl] | 650 ng/mL | 8,600 ng/mL | 0.0051 × 10^6 L/mole | 8,500 ng/mL | 0.97 × 10^6 L/mole | 0.0017 × 10^6 L/mole | 0.02 × 10^6 L/mole | 0.0012 × 10^6 L/mole
5 | N=C(N)c1ccc(CNC(=O)[C@@H]2C[C@H](Oc3ccccc3)CN2C(=O)[C@H]2CCCCN2)cc1 (relative stereo) [Example 22, D-hPro-Pro(4-cis-PhO)-P-NHCH2 -C6 H4 C(NH)NH2.2HCl] | 170 ng/mL | 2,300 ng/mL | 0.043 × 10^6 L/mole | 1,000 ng/mL | 3.0 × 10^6 L/mole | 0.042 × 10^6 L/mole | 8.5 × 10^6 L/mole | 0.004 × 10^6 L/mole
6 | Cl.N=C(N)N1CCC(CNC(=O)[C@@H]2CCCN2C(=O)[C@@H](CC2CCCCC2)NCC(=O)O)CC1 [Example 56, HO2 CCH2 -D-Cha-Pro-4-NHCH2 -1-amidinopiperidine.HCl] | 5 ng/mL | 160 ng/mL | 0.20 × 10^6 L/mole | 200 ng/mL | 490 × 10^6 L/mole | 0.01 × 10^6 L/mole | 3.6 × 10^6 L/mole | < 0.001 × 10^6 L/mole
